Legend:
Format in all cases: cell-based
Serratia marcescens = experiment: MIC against Gram-negative bacteria: Serratia marcescens; details: 5×10^5 CFU/mL
Method in brief: (§1)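 MIC = lowest concentration of recombinant protein showing no growth. Test proteins: purified human-derived EGF domain proteins, two-fold dilution series, three wells per concentration; inoculum 5×10^5 CFU/mL in LB; incubation 37° C with shaking at 175 rpm.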

Citrobacter diversus = experiment: MIC against Gram-negative bacteria: Citrobacter diversus; details: 5×10^5 CFU/mL
Method in brief: as §1

Proteus vulgaris = experiment: MIC against Gram-negative bacteria: Proteus vulgaris; details: 5×10^5 CFU/mL
Method in brief: as §1

Enterobacter cloacae = experiment: MIC against Gram-negative bacteria: Enterobacter cloacae; details: 5×10^5 CFU/mL
Method in brief: as §1

Aeromonas hydrophila = experiment: MIC against Gram-negative bacteria: Aeromonas hydrophila; details: 5×10^5 CFU/mL
Method in brief: as §1

E. coli BL21 = experiment: MIC against Gram-negative bacteria: E. coli BL21; details: 5×10^5 CFU/mL
Method in brief: as §1

Pseudomonas aeruginosa = experiment: MIC against Gram-negative bacteria: Pseudomonas aeruginosa; details: 5×10^5 CFU/mL
Method in brief: as §1

Proteus mirabilis = experiment: MIC against Gram-negative bacteria: Proteus mirabilis; details: 5×10^5 CFU/mL
Method in brief: as §1

Moraxella catarrhalis = experiment: MIC against Gram-negative bacteria: Moraxella catarrhalis; details: 5×10^5 CFU/mL
Method in brief: as §1

Klebsiella pneumonia = experiment: MIC against Gram-negative bacteria: Klebsiella pneumonia; details: 5×10^5 CFU/mL
Method in brief: as §1

E. coli DH5α = experiment: Antibacterial activity: MIC and growth curve against E. coli DH5α in 96-well plate; details: minimal inhibitory concentration against E. coli DH5α; 96-well plate, 5×10^5 CFU/mL, 37° C., judged after 8 h
Method in brief: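 MIC taken as lowest protein level with no bacterial growth, tracked by A600 every 30 min during 37 °C, 175 rpm culture. Two-fold protein series 50-12.5 μg/mL final, triplicate wells, against 5×10^5 CFU/mL of LB-washed mid-log cells.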

[1] = Serratia marcescens, 96-well plate, 37° C., 10 h
[2] = Citrobacter diversus, 96-well plate, 37° C., 10 h
[3] = Proteus vulgaris, 96-well plate, 37° C., 10 h
[4] = Enterobacter cloacae, 96-well plate, 37° C., 10 h
[5] = Aeromonas hydrophila, 96-well plate, 37° C., 10 h
[6] = E. coli BL21, 96-well plate, 37° C., 10 h
[7] = Pseudomonas aeruginosa, 96-well plate, 37° C., 10 h
[8] = Proteus mirabilis, 96-well plate, 37° C., 10 h
[9] = Moraxella catarrhalis, 96-well plate, 37° C., 10 h
[10] = Klebsiella pneumonia, 96-well plate, 37° C., 10 h
[11] = Serratia marcescens, 10 h cultivation at 37° C.
[12] = Citrobacter diversus, 10 h cultivation at 37° C.
[13] = Proteus vulgaris, 10 h cultivation at 37° C.
[14] = Enterobacter cloacae, 10 h cultivation at 37° C.
[15] = Aeromonas hydrophila, 10 h cultivation at 37° C.
[16] = E. coli BL21, 10 h cultivation at 37° C.
[17] = Pseudomonas aeruginosa, 10 h cultivation at 37° C.
[18] = Proteus mirabilis, 10 h cultivation at 37° C.
[19] = Moraxella catarrhalis, 10 h cultivation at 37° C.
[20] = Klebsiella pneumonia, 10 h cultivation at 37° C.
[21] = 10 h cultivation at 37° C., two-fold serial dilution

Substance: PRT40 (KGIDCSDGFNGGCEQLCLQQTLPLPYDATSSTIFMFCGCVEEYKLAPDGKSCL; listed as Homo sapiens)
- MIC (μg/mL) S. marcescens (Serratia marcescens; [1]): 12.5 µg/mL
- MIC (μg/mL) C. diversus (Citrobacter diversus; [2]): 25 µg/mL
- MIC (μg/mL) P. vulgaris (Proteus vulgaris; [3]): 25 µg/mL
- MIC (μg/mL) E. cloacae (Enterobacter cloacae; [4]): 25 µg/mL
- MIC (μg/mL) A. hydrophila (Aeromonas hydrophila; [5]): 50 µg/mL
- MIC (μg/mL) E. coli BL21 (E. coli BL21; [6]): 12.5 µg/mL
- MIC (μg/mL) P. aeruginosa (Pseudomonas aeruginosa; [7]): 25 µg/mL
- MIC (μg/mL) P. mirabilis (Proteus mirabilis; [8]): 12.5 µg/mL
- MIC (μg/mL) M. catarrhalis (Moraxella catarrhalis; [9]): 12.5 µg/mL
- MIC (μg/mL) K. pneumonia (Klebsiella pneumonia; [10]): 12.5 µg/mL
- MIC (E. coli DH5α): 25 µg/mL

Substance: PRT616 (CDCNGKSRQCIFDRELHRQTGNGFRCLNCNDNTDGIHCEKCKNGFYRHRERDRCLP; listed as Homo sapiens)
- MIC S. marcescens (Serratia marcescens; 96-well plate, 37° C., 10 h): 12.5 µg/mL
- MIC C. diversus (Citrobacter diversus; 96-well plate, 37° C., 10 h): 12.5 µg/mL
- MIC P. vulgaris (Proteus vulgaris; 96-well plate, 37° C., 10 h): 25 µg/mL
- MIC E. cloacae (Enterobacter cloacae; 96-well plate, 37° C., 10 h): 12.5 µg/mL
- MIC A. hydrophila (Aeromonas hydrophila; 96-well plate, 37° C., 10 h): 25 µg/mL
- MIC E. coli BL21 (E. coli BL21; 96-well plate, 37° C., 10 h): 12.5 µg/mL
- MIC P. aeruginosa (Pseudomonas aeruginosa; 96-well plate, 37° C., 10 h): 25 µg/mL
- MIC P. mirabilis (Proteus mirabilis; 96-well plate, 37° C., 10 h): 12.5 µg/mL
- MIC M. catarrhalis (Moraxella catarrhalis; 96-well plate, 37° C., 10 h): 25 µg/mL
- MIC K. pneumonia (Klebsiella pneumonia; 96-well plate, 37° C., 10 h): 50 µg/mL
- MIC (E. coli DH5α): 25 µg/mL

Substance: PRT1462 (CQCNLHGSVNKFCNPHSGQCECKKEAKGLQCDTCRENFYGLDVTNCKA; listed as Homo sapiens)
- MIC against S. marcescens (Serratia marcescens; [11]): 25 µg/mL
- MIC against C. diversus (Citrobacter diversus; [12]): 25 µg/mL
- MIC against P. vulgaris (Proteus vulgaris; [13]): 12.5 µg/mL
- MIC against E. cloacae (Enterobacter cloacae; [14]): 12.5 µg/mL
- MIC against A. hydrophila (Aeromonas hydrophila; [15]): 12.5 µg/mL
- MIC against E. coli BL21 (E. coli BL21; [16]): 25 µg/mL
- MIC against P. aeruginosa (Pseudomonas aeruginosa; [17]): 100 µg/mL
- MIC against P. mirabilis (Proteus mirabilis; [18]): 25 µg/mL
- MIC against M. catarrhalis (Moraxella catarrhalis; [19]): 12.5 µg/mL
- MIC against K. pneumonia (Klebsiella pneumonia; [20]): 12.5 µg/mL
- MIC (E. coli DH5α): 12.5 µg/mL

Substance: PRT1277 (ETCAVNNGGCDSKCHDAATGVHCTCPVGFMLQPDRKTCK; listed as Homo sapiens)
- MIC against S. marcescens (Serratia marcescens; [1]): 12.5 µg/mL
- MIC against C. diversus (Citrobacter diversus; [2]): 12.5 µg/mL
- MIC against P. vulgaris (Proteus vulgaris; [3]): 25 µg/mL
- MIC against E. cloacae (Enterobacter cloacae; [4]): 12.5 µg/mL
- MIC against A. hydrophila (Aeromonas hydrophila; [5]): 50 µg/mL
- MIC against E. coli BL21 (E. coli BL21; [6]): 50 µg/mL
- MIC against P. aeruginosa (Pseudomonas aeruginosa; [7]): 12.5 µg/mL
- MIC against P. mirabilis (Proteus mirabilis; [8]): 12.5 µg/mL
- MIC against M. catarrhalis (Moraxella catarrhalis; [9]): 25 µg/mL
- MIC against K. pneumonia (Klebsiella pneumonia; [10]): 50 µg/mL
- MIC (E. coli DH5α): 12.5 µg/mL

Substance: PRT1352 (SEPECPGNCHLRGRCIDGQCICDDGFTGEDCS; listed as Homo sapiens)
- MIC against S. marcescens (Serratia marcescens; [11]): 25 µg/mL
- MIC against C. diversus (Citrobacter diversus; [12]): 50 µg/mL
- MIC against P. vulgaris (Proteus vulgaris; [13]): 50 µg/mL
- MIC against E. cloacae (Enterobacter cloacae; [14]): 12.5 µg/mL
- MIC against A. hydrophila (Aeromonas hydrophila; [15]): 12.5 µg/mL
- MIC against E. coli BL21 (E. coli BL21; [16]): 12.5 µg/mL
- MIC against P. aeruginosa (Pseudomonas aeruginosa; [17]): 12.5 µg/mL
- MIC against P. mirabilis (Proteus mirabilis; [18]): 25 µg/mL
- MIC against M. catarrhalis (Moraxella catarrhalis; [19]): 12.5 µg/mL
- MIC against K. pneumonia (Klebsiella pneumonia; [20]): 12.5 µg/mL
- MIC (E. coli DH5α): 12.5 µg/mL

Substance: PRT1092 (ILLGCTHQQCLNNGTCIPHFQDGQHGFSCLCPSGYTGSLCE; listed as Homo sapiens)
- MIC S. marcescens (Serratia marcescens; [21]): 25 µg/mL
- MIC C. diversus (Citrobacter diversus; [21]): 12.5 µg/mL
- MIC P. vulgaris (Proteus vulgaris; [21]): 25 µg/mL
- MIC E. cloacae (Enterobacter cloacae; [21]): 25 µg/mL
- MIC A. hydrophila (Aeromonas hydrophila; [21]): 12.5 µg/mL
- MIC E. coli BL21 (E. coli BL21; [21]): 50 µg/mL
- MIC P. aeruginosa (Pseudomonas aeruginosa; [21]): 25 µg/mL
- MIC P. mirabilis (Proteus mirabilis; [21]): 50 µg/mL
- MIC M. catarrhalis (Moraxella catarrhalis; [21]): 25 µg/mL
- MIC K. pneumonia (Klebsiella pneumonia; [21]): 12.5 µg/mL
- MIC (E. coli DH5α): 25 µg/mL

Substance: PRT1097 (NIDECFSNPCIHGNCSDRVAAYHCTCEPGYTGVNCE; listed as Homo sapiens)
- MIC S. marcescens (Serratia marcescens; [21]): 25 µg/mL
- MIC C. diversus (Citrobacter diversus; [21]): 25 µg/mL
- MIC P. vulgaris (Proteus vulgaris; [21]): 12.5 µg/mL
- MIC E. cloacae (Enterobacter cloacae; [21]): 25 µg/mL
- MIC A. hydrophila (Aeromonas hydrophila; [21]): 12.5 µg/mL
- MIC E. coli BL21 (E. coli BL21; [21]): 12.5 µg/mL
- MIC P. aeruginosa (Pseudomonas aeruginosa; [21]): 25 µg/mL
- MIC P. mirabilis (Proteus mirabilis; [21]): 25 µg/mL
- MIC M. catarrhalis (Moraxella catarrhalis; [21]): 100 µg/mL
- MIC K. pneumonia (Klebsiella pneumonia; [21]): 12.5 µg/mL
- MIC (E. coli DH5α): 25 µg/mL

Reference: US9833497B2, “Human originated EGF domain proteins and use of the same” (CHENGDU SOURCEBIO LIMITED-LIABILITY COMPANY, priority 2013, dated 2017)
